In US20100298141A1, “SUBSTITUTED PYRIDINE N-OXIDE HERBICIDES” (E. I. DU PONT DE NEMOURS AND COMPANY, priority 2007, published 2010):

Experiments:
wheat = assay: Test A pre-/postemergence greenhouse test; assay type: in vivo, Triticum aestivum; settings: for Plant response rating, Wheat: 0 to 100 scale where 0 is no effect and 100 is complete control; for Wheat plant response rating: 0 to 100 scale
Procedure, shortened: (§1)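 Planting was into mixed loam soil and sand; preemergence treatment followed as a directed soil spray. Concurrently, emerged plants (one- to two-leaf, 2–10 cm) received postemergence applications of identically formulated compound (non-phytotoxic solvent, surfactant). After approximately ten days under greenhouse conditions, injury was judged by eye against untreated plants.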

crabgrass [1] = assay: Test C pre-/postemergence test; assay type: in vivo, Digitaria sanguinalis; settings: for Plant response rating, Crabgrass, Large: 31 g ai/ha, scale 0 to 100 (0 no effect, 100 complete control)
Procedure, shortened: (§2)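 Test chemicals were formulated with surfactant in a non-phytotoxic solvent and sprayed both on freshly planted seeds (preemergence) and on 1- to 4-leaf plants of 2–18 cm (postemergence). Flooded-paddy pots received compound directly into 3 cm of standing water, maintained for the test.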

morningglory = assay: Test C pre-/postemergence test; assay type: in vivo, Ipomoea coccinea; settings: for Plant response rating, Morningglory: 31 g ai/ha, scale 0 to 100 (0 no effect, 100 complete control)
Procedure, shortened: as §2

Goosegrass = assay: Test C pre-/postemergence test; assay type: in vivo, Eleusin indica; settings: for Plant response rating, Goosegrass: 31 g ai/ha, scale 0 to 100 (0 no effect, 100 complete control)
Procedure, shortened: as §2

corn [2] = assay: Test A pre-/postemergence greenhouse test; assay type: in vivo, Zea mays; settings: for Plant response rating, Corn: 0 to 100 scale where 0 is no effect and 100 is complete control; for Corn plant response rating: 0 to 100 scale
Procedure, shortened: as §1

[3] = system: common (oilseed) sunflower; assay: Test C pre-/postemergence test; assay type: in vivo, Helianthus annuus; settings: for Plant response rating, Sunflower: 31 g ai/ha, scale 0 to 100 (0 no effect, 100 complete control)
Procedure, shortened: as §2

barnyardgrass = assay: Test A pre-/postemergence greenhouse test; assay type: in vivo, Echinochloa crus-galli; settings: for Plant response rating, Barnyardgrass: 0 to 100 scale where 0 is no effect and 100 is complete control; for Barnyardgrass plant response rating: 0 to 100 scale
Procedure, shortened: as §1

crabgrass [4] = assay: Test A pre-/postemergence greenhouse test; assay type: in vivo, Digitaria sanguinalis; settings: for Plant response rating, Crabgrass, Large: 0 to 100 scale where 0 is no effect and 100 is complete control; for Crabgrass, Large plant response rating: 0 to 100 scale
Procedure, shortened: as §1

giant foxtail = assay: Test C pre-/postemergence test; assay type: in vivo, Setaria faberii
Procedure, shortened: as §2

pigweed = assay: Test C pre-/postemergence test; assay type: in vivo, Amaranthus retroflexus; settings: for Plant response rating, Pigweed: 31 g ai/ha, scale 0 to 100 (0 no effect, 100 complete control)
Procedure, shortened: as §2

umbrella sedge = assay: Test C flooded paddy test; assay type: in vivo, Cyperus difformis; settings: Flood
Procedure, shortened: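 Flooded 3 cm over soil; compound into paddy water; depth kept constant. Greenhouse 13–15 d.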

johnsongrass = assay: Test C pre-/postemergence test; assay type: in vivo, Sorghum halepense; settings: for Plant response rating, Johnsongrass: 31 g ai/ha, scale 0 to 100 (0 no effect, 100 complete control)
Procedure, shortened: as §2

eastern black nightshade = assay: Test C pre-/postemergence test; assay type: in vivo, Solanum ptycanthum; settings: for Plant response rating, Nightshade: 31 g ai/ha, scale 0 to 100 (0 no effect, 100 complete control)
Procedure, shortened: as §2

Surinam grass = assay: Test C pre-/postemergence test; assay type: in vivo, Brachiaria decumbens; settings: for Plant response rating, Surinam Grass: 31 g ai/ha, scale 0 to 100 (0 no effect, 100 complete control)
Procedure, shortened: as §2

velvetleaf = assay: Test C pre-/postemergence test; assay type: in vivo, Abutilon theophrasti; settings: for Plant response rating, Velvetleaf: 31 g ai/ha, scale 0 to 100 (0 no effect, 100 complete control)
Procedure, shortened: as §2

corn [5] = assay: Test C pre-/postemergence test; assay type: in vivo, Zea mays; settings: for Plant response rating, Corn: 31 g ai/ha, scale 0 to 100 (0 no effect, 100 complete control)
Procedure, shortened: as §2

Italian ryegrass = assay: Test C pre-/postemergence test; assay type: in vivo, Lolium multiflorum; settings: for Plant response rating, Ryegrass, Italian: 31 g ai/ha, scale 0 to 100 (0 no effect, 100 complete control)
Procedure, shortened: as §2

[6] = Postemergence, 500 g ai/ha, 0 is no effect, 100 is complete control
[7] = Preemergence, 125 g ai/ha, 0 no effect, 100 complete control
[8] = Preemergence, 500 g ai/ha, 0 no effect, 100 complete control
[9] = 62 g ai/ha, Preemergence, scale 0 to 100
[10] = 125 g ai/ha, preemergence, scale 0 (no effect) to 100 (complete control)
[11] = preemergence, 250 g ai/ha, scale 0 (no effect) to 100 (complete control)
[12] = 250 g ai/ha, scale 0 to 100, 0 no effect, 100 complete control, 13 to 15 days
[13] = Postemergence, 125 g ai/ha, 0 is no effect, 100 is complete control

Compound: Cc1cc[n+]([O-])c(S(=O)(=O)Cc2c(C(F)(F)C(F)(F)F)nn(C)c2OCC(F)(F)F)c1 [Compound 99]
- Plant response rating, Wheat (wheat; Postemergence, 125 g ai/ha): 50
- Wheat plant response rating (wheat; [6]): 70
- Wheat plant response rating (wheat; [7]): 50
- Wheat plant response rating (wheat; [8]): 90
- Crabgrass, Large plant response rating (crabgrass [1]; [9]): 100
- Crabgrass, Large plant response rating (crabgrass [1]; [10]): 100
- Plant response rating, Crabgrass, Large (crabgrass [1]; Preemergence): 80
- Crabgrass, Large plant response rating (crabgrass [1]; [11]): 100
- Morningglory plant response rating (morningglory; [9]): 100
- Morningglory plant response rating (morningglory; [10]): 100
- Plant response rating, Morningglory (morningglory; Preemergence): 65
- Morningglory plant response rating (morningglory; [11]): 100
- Goosegrass plant response rating (Goosegrass; [9]): 95
- Goosegrass plant response rating (Goosegrass; [10]): 100
- Plant response rating, Goosegrass (Goosegrass; Preemergence): 85
- Goosegrass plant response rating (Goosegrass; [11]): 100
- Plant response rating, Corn (corn [2]; Postemergence, 125 g ai/ha): 40
- Corn plant response rating (corn [2]; [6]): 60
- Corn plant response rating (corn [2]; [7]): 0
- Corn plant response rating (corn [2]; [8]): 30
- Sunflower plant response rating [3, 9]: 30
- Sunflower plant response rating [3, 10]: 30
- Plant response rating, Sunflower ([3]; Preemergence): 30
- Sunflower plant response rating [3, 11]: 40
- Plant response rating, Barnyardgrass (barnyardgrass; Postemergence, 125 g ai/ha): 60
- Barnyardgrass plant response rating (barnyardgrass; [6]): 80
- Barnyardgrass plant response rating (barnyardgrass; [7]): 70
- Barnyardgrass plant response rating (barnyardgrass; [8]): 100
- Plant response rating, Crabgrass, Large (crabgrass [4]; Postemergence, 125 g ai/ha): 60
- Crabgrass, Large plant response rating (crabgrass [4]; [6]): 80
- Crabgrass, Large plant response rating (crabgrass [4]; [7]): 80
- Crabgrass, Large plant response rating (crabgrass [4]; [8]): 100
- Foxtail, Giant plant response rating (giant foxtail; [9]): 85
- Foxtail, Giant plant response rating (giant foxtail; [10]): 100
- Foxtail, Giant plant response rating (giant foxtail; [11]): 100
- Pigweed plant response rating (pigweed; [9]): 100
- Pigweed plant response rating (pigweed; [10]): 100
- Plant response rating, Pigweed (pigweed; Preemergence): 100
- Pigweed plant response rating (pigweed; [11]): 100
- Plant response rating, Sedge, Umbrella (umbrella sedge; 62 g ai/ha, scale 0 to 100 (0 no effect, 100 complete control)): 0
- Plant response rating, Sedge, Umbrella (umbrella sedge; [12]): 65
- Johnsongrass plant response rating (johnsongrass; [9]): 90
- Johnsongrass plant response rating (johnsongrass; [10]): 100
- Plant response rating, Johnsongrass (johnsongrass; Preemergence): 40
- Johnsongrass plant response rating (johnsongrass; [11]): 100
- Nightshade plant response rating (eastern black nightshade; [9]): 98
- Nightshade plant response rating (eastern black nightshade; [10]): 100
- Plant response rating, Nightshade (eastern black nightshade; Preemergence): 90
- Nightshade plant response rating (eastern black nightshade; [11]): 100
- Surinam Grass plant response rating (Surinam grass; [9]): 75
- Surinam Grass plant response rating (Surinam grass; [10]): 95
- Plant response rating, Surinam Grass (Surinam grass; Preemergence): 0
- Surinam Grass plant response rating (Surinam grass; [11]): 95
- Velvetleaf plant response rating (velvetleaf; [9]): 80
- Velvetleaf plant response rating (velvetleaf; [10]): 100
- Plant response rating, Velvetleaf (velvetleaf; Preemergence): 0
- Velvetleaf plant response rating (velvetleaf; [11]): 100
- Corn plant response rating (corn [5]; [9]): 0
- Corn plant response rating (corn [5]; [10]): 30
- Plant response rating, Corn (corn [5]; Preemergence): 0
- Corn plant response rating (corn [5]; [11]): 50
- Ryegrass, Italian plant response rating (Italian ryegrass; [9]): 70
- Ryegrass, Italian plant response rating (Italian ryegrass; [10]): 75
- Plant response rating, Ryegrass, Italian (Italian ryegrass; Preemergence): 70
- Ryegrass, Italian plant response rating (Italian ryegrass; [11]): 100

Compound: Cc1cc[n+]([O-])c([S+]([O-])Cc2c(C(F)(F)F)nn(C)c2Cl)c1 (racemic) [Compound 20]
- Wheat plant response rating (wheat; [13]): 0
- Wheat plant response rating (wheat; [6]): 60
- Wheat plant response rating (wheat; [7]): 30
- Plant response rating, Wheat (wheat; Preemergence, 500 g ai/ha): 80
- Crabgrass, Large plant response rating (crabgrass [1]; [9]): 100
- Plant response rating, Crabgrass, Large (crabgrass [1]; Preemergence): 85
- Plant response rating (0 to 100), Crabgrass, Large (crabgrass [1]; Preemergence, 250 g ai/ha): 100
- Morningglory plant response rating (morningglory; [9]): 85
- Plant response rating, Morningglory (morningglory; Preemergence): 0
- Goosegrass plant response rating (Goosegrass; [9]): 100
- Plant response rating, Goosegrass (Goosegrass; Preemergence): 85
- Plant response rating (0 to 100), Goosegrass (Goosegrass; Preemergence, 250 g ai/ha): 100
- Corn plant response rating (corn [2]; [13]): 0
- Corn plant response rating (corn [2]; [6]): 70
- Corn plant response rating (corn [2]; [7]): 30
- Plant response rating, Corn (corn [2]; Preemergence, 500 g ai/ha): 60
- Sunflower plant response rating [3, 9]: 0
- Plant response rating, Sunflower ([3]; Preemergence): 0
- Barnyardgrass plant response rating (barnyardgrass; [13]): 40
- Barnyardgrass plant response rating (barnyardgrass; [6]): 80
- Barnyardgrass plant response rating (barnyardgrass; [7]): 70
- Plant response rating, Barnyardgrass (barnyardgrass; Preemergence, 500 g ai/ha): 100
- Crabgrass, Large plant response rating (crabgrass [4]; [13]): 40
- Crabgrass, Large plant response rating (crabgrass [4]; [6]): 80
- Crabgrass, Large plant response rating (crabgrass [4]; [7]): 80
- Plant response rating, Crabgrass, Large (crabgrass [4]; Preemergence, 500 g ai/ha): 100
- Foxtail, Giant plant response rating (giant foxtail; [9]): 98
- Plant response rating, Foxtail, Giant (giant foxtail; Preemergence, 31 g ai/ha, scale 0 to 100 (0 no effect, 100 complete control)): 85
- Plant response rating (0 to 100), Foxtail, Giant (giant foxtail; Preemergence, 250 g ai/ha): 100
- Pigweed plant response rating (pigweed; [9]): 100
- Plant response rating, Pigweed (pigweed; Preemergence): 80
- Plant response rating, Sedge, Umbrella (umbrella sedge; 31 g ai/ha, scale 0 to 100 (0 no effect, 100 complete control)): 0
- Plant response rating, Sedge, Umbrella (umbrella sedge; 62 g ai/ha, scale 0 to 100, 0 no effect, 100 complete control, 13 to 15 days): 0
- Plant response rating, Sedge, Umbrella (umbrella sedge; 125 g ai/ha, scale 0 to 100, 0 no effect, 100 complete control, 13 to 15 days): 85
- Plant response rating, Sedge, Umbrella (umbrella sedge; [12]): 85
- Johnsongrass plant response rating (johnsongrass; [9]): 80
- Plant response rating, Johnsongrass (johnsongrass; Preemergence): 60
- Plant response rating (0 to 100), Johnsongrass (johnsongrass; Preemergence, 250 g ai/ha): 100
- Nightshade plant response rating (eastern black nightshade; [9]): 85
- Plant response rating, Nightshade (eastern black nightshade; Preemergence): 80
- Surinam Grass plant response rating (Surinam grass; [9]): 70
- Plant response rating, Surinam Grass (Surinam grass; Preemergence): 0
- Velvetleaf plant response rating (velvetleaf; [9]): 5
- Plant response rating, Velvetleaf (velvetleaf; Preemergence): 0
- Corn plant response rating (corn [5]; [9]): 20
- Plant response rating, Corn (corn [5]; Preemergence): 0
- Plant response rating (0 to 100), Corn (corn [5]; Preemergence, 250 g ai/ha): 85
- Corn plant response rating (corn [5]; preemergence, 125 g ai/ha, scale 0 (no effect) to 100 (complete control)): 50
- Ryegrass, Italian plant response rating (Italian ryegrass; [9]): 60
- Plant response rating, Ryegrass, Italian (Italian ryegrass; Preemergence): 30
